Tests used:
[1] = test system: cannabis clones of the gelato varietal; conditions: in vivo
[2] = test system: cannabis clones of the gelato varietal; experiment: Aroma compound analysis of cannabis flower by GCxGC-FID/TOF-MS; type: in vivo; conditions: compared with control and G1
Method: The major volatile aroma compounds of the flowers from the Cannabis plants were extracted using methanol as a solvent. 200 mg of flower was placed into a scintillation vial followed by mechanical grinding with a plastic disposable spatula. 2 mL of methanol was added to the flower and agitated for 15 minutes, followed by transferring 4 μL of the solution using a filtered syringe to a 20 mL headspace vial and crimped using an electric crimper.
GC×GC analysis was performed using the INSIGHT™ reverse fill flush flow modulator (SepSolve Analytical). This was coupled for data generation to an Agilent 7890B GC and BenchTOF Select Time of flight mass spectrometer (Markes International). Time-of-Flight Mass spectrometry (TOF-MS) was used to identify compounds. Quantification of compounds was done using a flame ionization detector (HD). Sample introduction was done using a Centri Sample Concentration Platform (Markes International). […]
Data was collected, integrated, and analyzed using the ChromSpace software platform (Sepsolve Analytical). Compounds were quantified from GC×GC—FID data with calibration curves using a 40-compound terpene standard (LGC Standards). […]
Three different samples of the plants shown in FIG. 4 were measured to obtain an average.
Three different samples of the plants shown were measured to for each group.

O=S(=O)([O-])[O-].[K+].[K+] [K2SO4, potassium sulfate]
THC and total cannabinoid concentration / cannabinoid production, in words [1]: negatively affects | volatile aroma compound production / aroma content, in words [2]: negatively affects

COc1ccc2[nH]cc(CCNC(C)=O)c2c1 [melatonin]
THC and total cannabinoid concentration / cannabinoid production, in words [1]: increased cannabinoid production relative to the control group

Reference: patent US20230157286A1, “METHODS FOR INCREASING SECONDARY METABOLITE PRODUCTION IN CANNABIS” (priority 2021, published 2023)
